We go through 1 compound from US20260248799A1, “COMBINATIONS OF RETINALDEHYDE DEHYDROGENASE 1 (RALDH1) INHIBITORS AND IMMUNOSTIMULATORS AND METHODS USING SAME” (The Trustees of the University of Pennsylvania, priority 2023, published 2026).

One assay deals with T1, Opiate δ1 (OP1, DOP) (Homo sapiens, UniProt P41143).
T1 construct: Eurofins Cereps Panlabs (contract panel)
The assay is described as follows: Safetyscreen: Opiate δ1. Format: binding. The following applies: read-out: % Inh. Opiate δ1 (OP1, DOP).

The target of another assay is T2, Monoamine Oxidase MAO-B (Homo sapiens, UniProt P27338).
T2 construct: Eurofins Cerep Panlabs (contract panel)
The assay is described as follows: Safetyscreen: MAO-B. The assay is classed as biochemical. The settings on record: read-out: % Inh. Monoamine Oxidase MAO-B.

Assay [1] has as its system murine monocytes from bone marrow. The experiment in a line: Murine monocyte DC differentiation with SNU398 cells or conditioned media. The assay is classed as cell-based, mouse. The following applies: HCC cells pre-treated. The text has this:
(§1) FIGS. 22A-22E: RALDH1 inhibition blocks RA-mediated effects of HCC on monocyte differentiation. FIGS. 22A-22B: Circulating primary human monocytes from donors (FIG. 22A) or murine monocytes from bone marrow (FIG. 22B) were cocultured with SNU398 (Human HCC) cells or treated with SNU398-conditioned media (CM) in a DC differentiation system (GM-CSF and IL-4). Two-color histograms show the frequencies of DCs (CD11c^+CD1a^+ for human and CD11c^+MHCII^+ for mouse). The presence of SNU398 or its CM suppressed DC differentiation, which is reversed when SNU398 cells are treated with C86. Three or more independent experiments were performed with at least three replicates per experimental group. Unpaired t test, two-tailed. FIG. 22C: Huh7 (human HCC) cells were subcutaneously injected into flanks of NU/J mice. 12 days later the tumor size was about 50 mm^3 and C86 or vehicle treatment (10 mg/kg, i.p, daily injection) was started. […] The frequencies of the host (murine) DCs (CD45^+F4/80^−CD11C^+MHCII-high) and macrophages (CD45^+F4/80^+) are quantified in a bar graph. […] Shown are the representative FCM plot (histogram) and DC quantification (bar graph). […]
Monocytes were isolated from bone marrow of C57BL/6 mice using the Mouse BM Monocyte Isolation Kit (Miltenyi Biotec) according to manufacturer's instructions. Purity of monocyte was assessed by flow cytometry using CD11b, Ly6C, and Ly6G. […]

For a further assay, the target named is T3, Bradykinin B2 (Homo sapiens, UniProt P30411).
T3 construct: purchased Eurofins Cereps Panlabs
The assay is described as follows: Safetyscreen: Bradykinin B2. Format: binding. The settings on record: read-out: % Inh. Bradykinin B2.

In the next assay the target is T4, Chemokine CCR1 (Homo sapiens, UniProt P32246).
T4 construct: purchased Eurofins Cereps Panlabs
The assay is described as follows: Safetyscreen: CCR1. The settings on record: read-out: % Inh. Chemokine CCR1. The assay is classed as binding.

For the next assay, the system named is monocytes in Huh7 tumors. The assay is described as follows: Differentiation of human monocytes injected into Huh7 tumors in NU/J mice. The assay is classed as in vivo, mouse. The following applies: 10 mg/kg, i.p, daily.
Text: as §1
Monocytes were isolated (as described above) from mouse bone marrow of C57BL/6 mice and counted. […] Tumors were harvested at specified time points and analyzed by flow cytometry. […]

Assay [2] concerns the target T5, Leukotriene, Cysteinyl CysLT1 (Homo sapiens, UniProt Q9Y271).
T5 construct: purchased Eurofins Cereps Panlabs
The assay is described as follows: Safetyscreen: CysLT1. The following applies: read-out: % Inh. Leukotriene, Cysteinyl CysLT1. The assay is classed as binding.

The test system of a further assay is primary human monocytes. The experiment in a line: Human monocyte DC differentiation with SNU398 cells or conditioned media. Format: cell-based.
Text: as §1, with “mice.” for “mice. 12 days later the tumor size was about 50 mm^3 and C86 or vehicle treatment (10 mg/kg, i.p, daily injection) was started.”
Mouse monocytes were isolated from bone marrow as described herein and then cultured in RPMI 1640 (ThermoFisher Scientific, Cat #11875085) with 10% fetal bovine serum (GeminiBio, Cat #100-500). […] Cellular identity and function of differentiated monocytes was assessed by flow cytometry and quantitative PCR (qPCR).

The target of the next assay is T6, Muscarinic M4 (Homo sapiens, UniProt P08173).
T6 construct: Eurofins Cereps Panlabs (contract panel)
The experiment in a line: Safetyscreen: Muscarinic M4. Format: binding. The following applies: read-out: % Inh. Muscarinic M4.

For assay [3], the system named is Calcium Channel L-Type, Dihydropyridine. The experiment in a line: Safetyscreen: Ca channel L-type, dihydropyridine. Format: binding, rat. The following applies: 10 μM.
For another assay, the system named is Glutamate, AMPA. The assay is described as follows: Safetyscreen: Glutamate, AMPA. The following applies: 10 μM. The assay is classed as binding, rat.
Assay [4] concerns GABAA, Ro-15-1788, Hippocampus. The assay is described as follows: Safetyscreen: GABAA, Ro-15-1788. Format: binding, rat. The settings on record: 10 μM.
The target of another assay is T7, Adrenergic α2B (Homo sapiens, UniProt P18089).
T7 construct: Eurofins Cerep Panlabs (contract panel)
The assay is described as follows: Safetyscreen: Adrenergic α2B. Format: binding. The following applies: read-out: % Inh. Adrenergic α2B.

T7 sequence (P18089 whole entry): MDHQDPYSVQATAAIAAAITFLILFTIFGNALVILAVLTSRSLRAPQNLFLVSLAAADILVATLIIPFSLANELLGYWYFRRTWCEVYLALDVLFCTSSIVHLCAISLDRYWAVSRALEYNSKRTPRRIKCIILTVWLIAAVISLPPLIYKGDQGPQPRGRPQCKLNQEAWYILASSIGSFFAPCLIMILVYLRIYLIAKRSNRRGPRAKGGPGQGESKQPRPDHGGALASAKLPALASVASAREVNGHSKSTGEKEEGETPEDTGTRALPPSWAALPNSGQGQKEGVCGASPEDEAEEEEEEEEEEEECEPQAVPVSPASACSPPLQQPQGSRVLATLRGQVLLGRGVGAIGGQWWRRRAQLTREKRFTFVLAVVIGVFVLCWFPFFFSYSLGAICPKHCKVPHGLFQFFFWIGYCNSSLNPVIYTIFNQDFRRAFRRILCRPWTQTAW
T2 sequence (P27338 whole entry): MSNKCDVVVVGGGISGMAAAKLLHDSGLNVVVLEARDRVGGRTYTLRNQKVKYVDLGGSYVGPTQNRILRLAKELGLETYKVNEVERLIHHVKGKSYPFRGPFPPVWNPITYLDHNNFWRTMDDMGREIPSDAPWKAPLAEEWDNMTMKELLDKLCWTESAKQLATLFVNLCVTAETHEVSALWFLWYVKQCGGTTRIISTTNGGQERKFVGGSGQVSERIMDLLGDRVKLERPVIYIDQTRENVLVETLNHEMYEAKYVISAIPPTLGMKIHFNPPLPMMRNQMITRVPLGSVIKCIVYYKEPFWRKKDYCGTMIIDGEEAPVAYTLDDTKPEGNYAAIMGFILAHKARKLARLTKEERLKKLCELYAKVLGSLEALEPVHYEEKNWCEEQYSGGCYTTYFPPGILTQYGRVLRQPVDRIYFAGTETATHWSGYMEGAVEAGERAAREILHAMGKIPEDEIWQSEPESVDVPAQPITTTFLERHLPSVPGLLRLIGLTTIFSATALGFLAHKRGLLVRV
T6 sequence (P08173 whole entry): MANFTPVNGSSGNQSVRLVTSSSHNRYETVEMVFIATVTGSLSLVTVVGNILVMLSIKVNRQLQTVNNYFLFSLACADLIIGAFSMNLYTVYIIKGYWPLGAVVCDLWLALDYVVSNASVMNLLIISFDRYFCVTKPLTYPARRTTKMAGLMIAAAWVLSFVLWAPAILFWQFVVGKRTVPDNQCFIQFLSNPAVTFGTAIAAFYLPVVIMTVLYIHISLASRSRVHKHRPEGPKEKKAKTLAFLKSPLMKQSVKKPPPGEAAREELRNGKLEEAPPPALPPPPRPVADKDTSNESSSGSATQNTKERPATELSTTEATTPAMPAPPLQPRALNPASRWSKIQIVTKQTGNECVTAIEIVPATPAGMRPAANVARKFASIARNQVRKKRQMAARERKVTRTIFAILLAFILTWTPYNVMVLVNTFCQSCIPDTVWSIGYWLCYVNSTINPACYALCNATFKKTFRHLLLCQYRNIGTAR
T3 sequence (P30411 whole entry): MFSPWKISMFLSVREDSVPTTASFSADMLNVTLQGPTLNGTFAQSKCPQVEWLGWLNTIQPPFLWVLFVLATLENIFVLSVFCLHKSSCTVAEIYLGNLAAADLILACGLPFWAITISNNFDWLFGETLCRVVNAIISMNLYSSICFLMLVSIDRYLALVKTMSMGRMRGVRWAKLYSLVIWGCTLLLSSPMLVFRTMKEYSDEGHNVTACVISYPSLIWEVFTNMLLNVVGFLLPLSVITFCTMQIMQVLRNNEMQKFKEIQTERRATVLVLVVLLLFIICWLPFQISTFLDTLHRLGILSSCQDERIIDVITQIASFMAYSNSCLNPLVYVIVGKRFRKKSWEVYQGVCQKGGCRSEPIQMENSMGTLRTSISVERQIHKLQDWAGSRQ
T4 sequence (P32246 whole entry): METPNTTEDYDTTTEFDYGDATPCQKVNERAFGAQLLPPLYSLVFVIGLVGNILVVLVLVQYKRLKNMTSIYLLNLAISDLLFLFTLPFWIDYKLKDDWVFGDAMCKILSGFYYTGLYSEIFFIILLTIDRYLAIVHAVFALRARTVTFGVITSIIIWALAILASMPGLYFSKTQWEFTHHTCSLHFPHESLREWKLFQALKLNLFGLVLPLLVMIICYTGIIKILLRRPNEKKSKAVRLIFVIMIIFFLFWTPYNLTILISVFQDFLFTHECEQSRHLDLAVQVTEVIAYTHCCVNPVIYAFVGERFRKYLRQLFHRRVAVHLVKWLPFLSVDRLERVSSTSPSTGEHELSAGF
T5 sequence (Q9Y271 whole entry): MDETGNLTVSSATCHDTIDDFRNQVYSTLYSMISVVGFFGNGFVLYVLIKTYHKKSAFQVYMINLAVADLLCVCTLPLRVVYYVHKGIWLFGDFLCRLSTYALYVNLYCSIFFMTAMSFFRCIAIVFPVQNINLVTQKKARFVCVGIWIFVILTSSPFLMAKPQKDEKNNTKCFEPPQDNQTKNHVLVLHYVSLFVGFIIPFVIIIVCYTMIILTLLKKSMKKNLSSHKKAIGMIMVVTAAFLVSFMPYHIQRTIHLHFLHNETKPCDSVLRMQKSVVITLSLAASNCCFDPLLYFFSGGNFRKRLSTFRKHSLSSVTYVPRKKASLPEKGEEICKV
T1 sequence (P41143 whole entry): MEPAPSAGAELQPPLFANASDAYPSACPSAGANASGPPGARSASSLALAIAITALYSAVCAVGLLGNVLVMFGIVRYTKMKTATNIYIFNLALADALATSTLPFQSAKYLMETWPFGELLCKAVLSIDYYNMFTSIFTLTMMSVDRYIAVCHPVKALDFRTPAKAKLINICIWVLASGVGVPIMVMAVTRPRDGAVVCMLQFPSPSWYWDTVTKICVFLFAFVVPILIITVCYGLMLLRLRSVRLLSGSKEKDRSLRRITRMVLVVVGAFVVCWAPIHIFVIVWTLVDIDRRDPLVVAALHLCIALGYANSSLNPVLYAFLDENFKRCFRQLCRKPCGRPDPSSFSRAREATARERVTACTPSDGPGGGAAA

Regarding `CS(=O)(=O)N1CCN(C(=O)c2cnc3ccc(F)cc3c2N2CCC(C#N)(c3ccccc3)CC2)CC1` [Compound C-86, 1-(6-fluoro-3-(4-(methylsulfonyl)piperazine-1-carbonyl)quinolin-4-yl)-4-phenylpiperidine-4-carbonitrile], the inhibition at 10 µM amounted to 2% at Opiate δ1 (OP1, DOP); 4% on Monoamine Oxidase MAO-B; 2% at Bradykinin B2; 18% on Chemokine CCR1; 5% in assay [2]; 13% on Muscarinic M4. Moreover, the inhibition at 10 µM at Adrenergic α2B amounted to 9%. Further, the “suppression of DC differentiation by HCC cells or CM” value in assay [1] is “reversed”; in the assay on primary human monocytes (human monocytes, HCC cells pre-treated) it was “reversed”. In addition, the “frequency of host (murine) DCs and macrophages in the TME” value with monocytes in Huh7 tumors was “increased frequency of DCs and reduced frequency of macrophages”. Also, the “DC differentiation from transplanted human monocytes” value in the assay with monocytes in Huh7 tumors (five days after monocyte injection) is “increased DC differentiation”. In the assay on primary human monocytes (direct treatment of monocytes in vitro), the “potential of monocytes to differentiate into DCs” value is listed as “did not alter”. For the same compound, in [3], the “% Inh. Calcium Channel L-Type, Dihydropyridine” value worked out at 23%. Further, the “% Inh. Glutamate, AMPA” value in the assay with Glutamate, AMPA worked out at 0%. The “% Inh. GABAA, Ro-15-1788, Hippocampus” value in assay [4] is reported as −7%.
